According to ChEMBL document CHEMBL2203015, “Synthesis and biological evaluation of 5-aryloxypyrazole derivatives bearing a rhodanine-3-aromatic acid as potential antimicrobial agents” (Bioorg Med Chem Lett, 2012):
Values after ≈ are worked out from the molar mass of the structure shown.

Assays:
Assay type in all cases: functional
[1] = tested on: Staphylococcus aureus; assay: Potency index, ratio of MIC for norfloxacin to MIC for compound against quinolone-resistant Staphylococcus aureus CCARM 3519 incubated for 24 hrs serial dilution method
[2] = tested on: Staphylococcus aureus; assay: Potency index, ratio of MIC for norfloxacin to MIC for compound against quinolone-resistant Staphylococcus aureus CCARM 3505 incubated for 24 hrs serial dilution method
[3] = tested on: Staphylococcus aureus; assay: Potency index, ratio of MIC for norfloxacin to MIC for compound against multidrug-resistant Staphylococcus aureus CCARM 3506 incubated for 24 hrs serial dilution method
[4] = tested on: Staphylococcus aureus; assay: Potency index, ratio of MIC for norfloxacin to MIC for compound against multidrug-resistant Staphylococcus aureus CCARM 3167 incubated for 24 hrs serial dilution method
[5] = tested on: Staphylococcus aureus; assay: Antibacterial activity against quinolone-resistant Staphylococcus aureus CCARM 3519 incubated for 24 hrs serial dilution method; settings: CCARM 3519, 24 h
[6] = tested on: Staphylococcus aureus; assay: Antibacterial activity against quinolone-resistant Staphylococcus aureus CCARM 3505 incubated for 24 hrs serial dilution method; settings: CCARM 3505, 24 h
[7] = tested on: Staphylococcus aureus; assay: Antibacterial activity against multidrug-resistant Staphylococcus aureus CCARM 3506 incubated for 24 hrs serial dilution method; settings: CCARM 3506, 24 h
[8] = tested on: Staphylococcus aureus; assay: Antibacterial activity against multidrug-resistant Staphylococcus aureus CCARM 3167 incubated for 24 hrs serial dilution method; settings: CCARM 3167, 24 h
[9] = tested on: Escherichia coli; assay: Antibacterial activity against Escherichia coli 1356 incubated for 24 hrs serial dilution method; settings: Escherichia coli, 1356, 24 h
[10] = tested on: Staphylococcus aureus; assay: Antibacterial activity against Staphylococcus aureus KCTC 503 incubated for 24 hrs serial dilution method; settings: KCTC 503, 24 h
[11] = tested on: Staphylococcus aureus; assay: Antibacterial activity against Staphylococcus aureus KCTC 209 incubated for 24 hrs serial dilution method; settings: KCTC 209, 24 h
[12] = tested on: Staphylococcus aureus; assay: Antibacterial activity against Staphylococcus aureus RN 4220 incubated for 24 hrs serial dilution method; settings: RN 4220, 24 h

| SMILES | Ratio [1] | Ratio [2] | Ratio [3] | Ratio [4] | MIC [5] | MIC [6] | MIC [7] | MIC [8] | MIC [9] | MIC [10] | MIC [11] | MIC [12] |
| --- | --- | --- | --- | --- | --- | --- | --- | --- | --- | --- | --- | --- |
| Cc1nn(-c2ccccc2)c(Oc2ccccc2)c1/C=C1\SC(=S)N([C@@H](Cc2ccccc2)C(=O)O)C1=O | 4 | 4 | 2 | 2 | 8 µg/mL (≈ 14.8 µM) | 8 µg/mL (≈ 14.8 µM) | 4 µg/mL (≈ 7.38 µM) | 4 µg/mL (≈ 7.38 µM) | > 64 µg/mL | > 64 µg/mL | > 64 µg/mL | 8 µg/mL (≈ 14.8 µM) |
| Cc1ccccc1Oc1c(/C=C2\SC(=S)N([C@@H](Cc3ccccc3)C(=O)O)C2=O)c(C)nn1-c1ccccc1 | 4 | 4 | 2 | 2 | 8 µg/mL (≈ 14.4 µM) | 8 µg/mL (≈ 14.4 µM) | 8 µg/mL (≈ 14.4 µM) | 4 µg/mL (≈ 7.2 µM) | > 64 µg/mL | > 64 µg/mL | > 64 µg/mL | 4 µg/mL (≈ 7.2 µM) |
| Cc1nn(-c2ccccc2)c(Oc2ccc(F)cc2)c1/C=C1\SC(=S)N([C@@H](Cc2ccccc2)C(=O)O)C1=O | 4 | 4 | 2 | 2 | 8 µg/mL (≈ 14.3 µM) | 8 µg/mL (≈ 14.3 µM) | 8 µg/mL (≈ 14.3 µM) | 4 µg/mL (≈ 7.15 µM) | > 64 µg/mL | > 64 µg/mL | > 64 µg/mL | 8 µg/mL (≈ 14.3 µM) |
| Cc1nn(-c2ccccc2)c(Oc2ccc(Br)cc2)c1/C=C1\SC(=S)N([C@@H](Cc2ccccc2)C(=O)O)C1=O | 4 | 4 | 2 | 2 | 2 µg/mL (≈ 3.22 µM) | 2 µg/mL (≈ 3.22 µM) | 2 µg/mL (≈ 3.22 µM) | 2 µg/mL (≈ 3.22 µM) | > 64 µg/mL | > 64 µg/mL | > 64 µg/mL | 2 µg/mL (≈ 3.22 µM) |
| Cc1nn(-c2ccccc2)c(Oc2ccccc2Cl)c1/C=C1\SC(=S)N([C@@H](Cc2ccccc2)C(=O)O)C1=O | 4 | 4 | 2 | 2 | 8 µg/mL (≈ 13.9 µM) | 8 µg/mL (≈ 13.9 µM) | 8 µg/mL (≈ 13.9 µM) | 8 µg/mL (≈ 13.9 µM) | > 64 µg/mL | > 64 µg/mL | > 64 µg/mL | 8 µg/mL (≈ 13.9 µM) |
| COc1ccccc1Oc1c(/C=C2\SC(=S)N([C@@H](Cc3ccccc3)C(=O)O)C2=O)c(C)nn1-c1ccccc1 | 4 | 4 | 2 | 2 | 8 µg/mL (≈ 14 µM) | 8 µg/mL (≈ 14 µM) | 8 µg/mL (≈ 14 µM) | 8 µg/mL (≈ 14 µM) | > 64 µg/mL | > 64 µg/mL | > 64 µg/mL | 16 µg/mL (≈ 28 µM) |
| Cc1ccc(Oc2c(/C=C3\SC(=S)N([C@@H](Cc4ccccc4)C(=O)O)C3=O)c(C)nn2-c2ccccc2)c(C)c1 | 4 | 4 | 2 | 2 | 2 µg/mL (≈ 3.51 µM) | 2 µg/mL (≈ 3.51 µM) | 2 µg/mL (≈ 3.51 µM) | 2 µg/mL (≈ 3.51 µM) | > 64 µg/mL | > 64 µg/mL | > 64 µg/mL | 2 µg/mL (≈ 3.51 µM) |
| Cc1cccc(Oc2c(/C=C3\SC(=S)N([C@@H](Cc4ccccc4)C(=O)O)C3=O)c(C)nn2-c2ccccc2)c1 | 4 | 4 | 2 | 2 | 8 µg/mL (≈ 14.4 µM) | 4 µg/mL (≈ 7.2 µM) | 4 µg/mL (≈ 7.2 µM) | 4 µg/mL (≈ 7.2 µM) | > 64 µg/mL | > 64 µg/mL | > 64 µg/mL | 4 µg/mL (≈ 7.2 µM) |
| Cc1nn(-c2ccccc2)c(Oc2ccc(Cl)cc2)c1/C=C1\SC(=S)N([C@@H](Cc2ccccc2)C(=O)O)C1=O | 4 | 4 | 2 | 2 | 4 µg/mL (≈ 6.94 µM) | 4 µg/mL (≈ 6.94 µM) | 4 µg/mL (≈ 6.94 µM) | 2 µg/mL (≈ 3.47 µM) | > 64 µg/mL | > 64 µg/mL | > 64 µg/mL | 4 µg/mL (≈ 6.94 µM) |
| Cc1ccc(Oc2c(/C=C3\SC(=S)N([C@@H](Cc4ccccc4)C(=O)O)C3=O)c(C)nn2-c2ccccc2)cc1 | 4 | 4 | 2 | 2 | 4 µg/mL (≈ 7.2 µM) | 4 µg/mL (≈ 7.2 µM) | 8 µg/mL (≈ 14.4 µM) | 4 µg/mL (≈ 7.2 µM) | > 64 µg/mL | > 64 µg/mL | > 64 µg/mL | 4 µg/mL (≈ 7.2 µM) |
| Cc1nn(-c2ccccc2)c(Oc2cccc(C(F)(F)F)c2)c1/C=C1\SC(=S)N([C@@H](Cc2ccccc2)C(=O)O)C1=O | 4 | 4 | 2 | 2 | 8 µg/mL (≈ 13.1 µM) | 4 µg/mL (≈ 6.56 µM) | 4 µg/mL (≈ 6.56 µM) | 4 µg/mL (≈ 6.56 µM) | > 64 µg/mL | > 64 µg/mL | > 64 µg/mL | 4 µg/mL (≈ 6.56 µM) |
